What was measured:
[1] = target: T1, EiCsm6 (Enterococcus italicus, UniProt E6LHV2); experiment: LC-MS degradation assay; RNaseAlert activation assay; assay type: biochemical; conditions: 25 uM cA6 and 25 uM protein, 37 °C, 1 h; also allosteric activator at CARF domain
T1 construct: gene csm6; recombinant from E. coli BL21 Star (DE3); N-terminal His6-TEV tag cut; full gene; homodimer, ligand site at the CARF domain interface
T1 sequence (E6LHV2 1-430): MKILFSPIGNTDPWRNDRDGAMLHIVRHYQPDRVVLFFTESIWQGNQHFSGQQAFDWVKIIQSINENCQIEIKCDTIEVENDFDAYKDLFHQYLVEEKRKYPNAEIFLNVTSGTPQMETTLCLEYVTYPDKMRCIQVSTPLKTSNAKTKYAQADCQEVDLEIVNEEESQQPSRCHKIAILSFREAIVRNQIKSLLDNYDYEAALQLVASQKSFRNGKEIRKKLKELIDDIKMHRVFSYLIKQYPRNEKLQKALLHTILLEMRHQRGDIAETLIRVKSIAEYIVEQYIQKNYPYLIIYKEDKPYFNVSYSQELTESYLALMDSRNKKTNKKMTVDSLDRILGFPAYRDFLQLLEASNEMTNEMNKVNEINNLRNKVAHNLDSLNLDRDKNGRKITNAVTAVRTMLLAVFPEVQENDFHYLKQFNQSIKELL

[2] = target: T1, EiCsm6; experiment: fluorogenic RNaseAlert ribonuclease assay, initial velocities, variable Hill fit; assay type: biochemical; conditions: 5 nM EiCsm6, 10 mM HEPES pH 7.5, 50 mM KCl; allosteric activator at CARF domain, read-out HEPN RNase
[3] = target: T1, EiCsm6; experiment: X-ray crystal structure of the complex, […] Å; assay type: binding; conditions: bound at the CARF domain dimer interface, one cFA6 per homodimer
[4] = target: the molecule itself; experiment: crystal structure; EiCsm6 (120 uM) co-crystallised with the cA6 mimic cFA6 (288 uM); 100 mM HEPES pH 7.5, 1.6 M ammonium sulfate, 25 mM lithium perchlorate; space group P1, four homodimers in the asymmetric unit; 2.4 A

**Q.** With `Nc1ncnc2c1ncn2[C@@H]1O[C@@H]2COP(=O)(O)O[C@H]3[C@@H](O)[C@H](n4cnc5c(N)ncnc54)O[C@@H]3COP(=O)(O)O[C@H]3[C@@H](O)[C@H](n4cnc5c(N)ncnc54)O[C@@H]3COP(=O)(O)O[C@H]3[C@@H](O)[C@H](n4cnc5c(N)ncnc54)O[C@@H]3COP(=O)(O)O[C@H]3[C@@H](O)[C@H](n4cnc5c(N)ncnc54)O[C@@H]3COP(=O)(O)O[C@H]3[C@@H](O)[C@H](n4cnc5c(N)ncnc54)O[C@@H]3COP(=O)(O)O[C@H]2[C@H]1O` [cA6] as the molecule, how does the “LC-MS degradation assay; RNaseAlert activation assay” value [1] read?
**A.** revealing that cA6 was efficiently degraded to yield a mixture of products

**Q.** Which results are given for `Nc1ncnc2c1ncn2[C@@H]1O[C@@H]2COP(=O)(O)O[C@H]3[C@@H](F)[C@H](n4cnc5c(N)ncnc54)O[C@@H]3COP(=O)(O)O[C@H]3[C@@H](F)[C@H](n4cnc5c(N)ncnc54)O[C@@H]3COP(=O)(O)O[C@H]3[C@@H](F)[C@H](n4cnc5c(N)ncnc54)O[C@@H]3COP(=O)(O)O[C@H]3[C@@H](F)[C@H](n4cnc5c(N)ncnc54)O[C@@H]3COP(=O)(O)O[C@H]3[C@@H](F)[C@H](n4cnc5c(N)ncnc54)O[C@@H]3COP(=O)(O)O[C@H]2[C@H]1F` [cFA6, 2’-,2’’-,2’’’,2’’’’,2’’’’’,2’’’’’’-hexadeoxy-2’-,2’’,2’’’,2’’’’,2’’’’’,2’’’’’’-hexafluoro-cyclic hexaadenosine monophosphate]?
**A.** EC50 [2]: 170 nM; X-ray crystal structure of the complex, 2.4 Å [3]: we co-crystallized EiCsm6 with cFA6 and determined the structure of the complex

B1: Enterococcus italicus Csm6 (EiCsm6), wild type (enzyme)
chain: MKILFSPIGNTDPWRNDRDGAMLHIVRHYQPDRVVLFFTESIWQGNQHFSGQQAFDWVKIIQSINENCQIEIKCDTIEVENDFDAYKDLFHQYLVEEKRKYPNAEIFLNVTSGTPQMETTLCLEYVTYPDKMRCIQVSTPLKTSNAKTKYAQADCQEVDLEIVNEEESQQPSRCHKIAILSFREAIVRNQIKSLLDNYDYEAALQLVASQKSFRNGKEIRKKLKELIDDIKMHRVFSYLIKQYPRNEKLQKALLHTILLEMRHQRGDIAETLIRVKSIAEYIVEQYIQKNYPYLIIYKEDKPYFNVSYSQELTESYLALMDSRNKKTNKKMTVDSLDRILGFPAYRDFLQLLEASNEMTNEMNKVNEINNLRNKVAHNLDSLNLDRDKNGRKITNAVTAVRTMLLAVFPEVQENDFHYLKQFNQSIKELL
notes: Csm6 ribonuclease (CARF and HEPN domains) of the type III CRISPR-Cas system of Enterococcus italicus DSM-15952; gene amplified from genomic DNA; Cloned into the 1B vector (Addgene 29653): N-terminal hexahistidine tag followed by a TEV site, removed with TEV protease; Crystallised with the small-molecule ligand cFA6 (PDB 6TUG) or with cA6; also called WT EiCsm6; source: E. coli BL21 Star (DE3), …
**Q.** How did the “stoichiometry N” value [4] turn out when B1 was run?
**A.** 2

— PMC7101355, “Activation and self-inactivation mechanisms of the cyclic oligoadenylate-dependent CRISPR ribonuclease Csm6” (Nature Communications, 2020)
